Literature values, collected in patent US20060269513A1, “Pheromone composition” (Kiotech Limited, priority 1997, published 2006).

System: humans
Settings: human olfactory threshold

Structure (SMILES) | Threshold concentration for humans (odour)
CCCCC(C)CCC(=O)O (stereo not shown) [4-Methyloctanoic acid] | in the region of ppb
C[C@]12CC[C@@H](O)C[C@@H]1CC[C@@H]1[C@@H]2CC[C@]2(C)C=CC[C@@H]12 [5-alpha-androst-16-en-3-α-ol] | in the low ppb range
CN(C)C [Trimethylamine] | about 1 ppb
NCCCCN [putrescine, 1,4-diaminobutane] | in the ppb range
